≈ marks a conversion by molar mass, not a printed value. Where two headings read alike, the source gives them in different places. Bridge positions count the residues as written; N and C are the ends. Square brackets hold non-standard residues; d marks the D form. Peptide text beside a SMILES is read from it. * marks the point of attachment. ξ: configuration not given here. ξPro(4ξ-Me) = CC1CNC(C(=O)O)C1; NMeA = CN[CH](C)C(=O)O; X1 = O=C(/C=C/C=C/CO)*
Tests used:
Culture A54556 = assay: Sensitivity of Culture A54556 to antibiotics, sensitivity discs on ISP medium No. 2 agar; note: key: +: sensitive, zones of inhibition; -: resistant, no zones of inhibition; type: cell-based, Streptomyces hawaiiensis NRRL 15010; conditions: 30 mcg. disc
Description: The sensitivity of Culture A54556 to several antibiotics at specific concentrations was determined with sensitivity discs padded onto the surface of plates containing ISP medium No. 2 agar seeded with 2% inoculum of Culture A54556.

anaerobic bacteria = assay: Activity against anaerobic bacteria; type: cell-based; conditions: agar-dilution method
Electrometric titration = type: physicochemical; conditions: 66 percent dimethylformamide in water
Description: Antibiotic A54556 factor A is a tan, amorphous solid. […] As determined by electron impact and field desorption mass spectrometry, A54556 factor A has a molecular weight of 718.

S. pyogenes = assay: In vivo protection against experimental bacterial infection in mice; conditions: Streptococcus pyogenes, sc, two doses subcutaneously
Description: (§1) When two doses of test compound were administered subcutaneously to mice in illustrative infections, the activity is measured as an ED50 value [effective does in mg./kg. to protect fifty percent of the test animals: See Warren Wick et al., J. Bacteriol. 81, 233-235 (1961)]. The ED50 values for these antibiotic A54556 factors are recorded in Table 15, which follows.

[1] = system: Streptococcus sp. (Group D) X66; assay: Disc-plate sensitivity; type: cell-based; conditions: Streptococcus, second test, Table 13
[2] = system: Clostridium perfringens 81; assay: microbe, parasite or virus in culture; type: cell-based
[3] = system: Bacteroides corrodens 1874; assay: MIC, agar-dilution method; type: cell-based; conditions: Eikenella corrodens
[4] = system: Staphylococcus epidermidis EPI1; conditions: second test, Table 13
[5] = system: experimental bacterial infections; assay: In vivo antimicrobial activity against experimental bacterial infections; conditions: mice, subcutaneously
Description: as §1

[6] = system: Staphylococcus aureus 3055; conditions: second test, Table 13, benzylpenicillin-susceptible
[7] = system: Streptococcus pyogenes (Group A) C203; conditions: second test, Table 13
[8] = system: Staphylococcus aureus V41; conditions: second test, Table 13, benzylpenicillin resistant
[9] = system: Fusobacterium symbiosum 1470; assay: MIC, agar-dilution method; type: cell-based
Peptococcus prevoti 1281 = assay: MIC, agar-dilution method; type: cell-based
[10] = system: Streptococcus pneumoniae Park I; conditions: second test, Table 13
Bacteroides fragilis 111 = assay: MIC, agar-dilution method; type: cell-based
Description: (§2) Antibiotic A54556 factors A, B, C, D, E, F, G, and H have been tested and found to be active against a number of anaerobic bacteria, as recorded in Table 14, which follows, the MIC values having been determined by the agar-dilution method.

[11] = system: Bacteroides fragilis 1936B; assay: MIC, agar-dilution method; type: cell-based
Description: as §2

[12] = system: Bacteroides thetaiotaomicron 1438; assay: MIC, agar-dilution method; type: cell-based
Description: as §2

[13] = system: Bacteroides melaninogenicus 1856/28; assay: MIC, agar-dilution method; type: cell-based; conditions: Prevotella intermedia
Description: as §2

[14] = system: Fusobacterium necrophorum 6054A; assay: MIC, agar-dilution method; type: cell-based
Description: as §2

[15] = system: Eubacterium aerofaciens 1235; assay: MIC, agar-dilution method; type: cell-based; conditions: Collinsella aerofaciens
Description: as §2

[16] = system: Bacteroides melaninogenicus 2736; assay: MIC, agar-dilution method; type: cell-based
Description: as §2

[17] = system: Peptostreptococcus intermedius 1264; assay: MIC, agar-dilution method; type: cell-based
Description: as §2

[18] = system: Bacteroides fragilis 1877; assay: MIC, agar-dilution method; type: cell-based
Description: as §2

[19] = system: Clostridium difficile 2994; assay: MIC, agar-dilution method; type: cell-based; conditions: Clostridioides difficile
Description: as §2

[20] = system: Clostridium septicum 1128; assay: MIC, agar-dilution method; type: cell-based
Description: as §2

[21] = system: Propionibacterium acnes 79; assay: MIC, agar-dilution method; type: cell-based; conditions: Cutibacterium acnes
Description: as §2

[22] = system: Peptostreptococcus anaerobius 1428; assay: MIC, agar-dilution method; type: cell-based
[23] = system: Peptococcus asaccharolyticus 1302; assay: MIC, agar-dilution method; type: cell-based; conditions: Peptoniphilus asaccharolyticus
[24] = system: Bacteroides vulgatis 1211; assay: MIC, agar-dilution method; type: cell-based

CO[C@@H]1[C@@H](OC(N)=O)[C@@H](O)[C@H](Oc2ccc3c(O)c(NC(=O)c4ccc(O)c(CC=C(C)C)c4)c(=O)oc3c2C)OC1(C)C [Novobiocin]
Antibiotic Sensitivity of Culture A54556 (Culture A54556): +

CN[C@H](CC(C)C)C(=O)N[C@H]1C(=O)N[C@@H](CC(N)=O)C(=O)N[C@H]2C(=O)N[C@H]3C(=O)N[C@H](C(=O)N[C@H](C(=O)O)c4cc(O)cc(O)c4-c4cc3ccc4O)[C@H](O)c3ccc(c(Cl)c3)Oc3cc2cc(c3O[C@@H]2O[C@H](CO)[C@@H](O)[C@H](O)[C@H]2O[C@H]2C[C@](C)(N)[C@H](O)[C@H](C)O2)Oc2ccc(cc2Cl)[C@H]1O [Vancomycin]
Antibiotic Sensitivity of Culture A54556 (Culture A54556): +

CC(=O)OCC1=C(C(=O)O)N2C(=O)[C@@H](NC(=O)Cc3cccs3)[C@H]2SC1 [Cephalothin]
Antibiotic Sensitivity of Culture A54556 (Culture A54556): -

CN(C)C1C(=O)C(C(N)=O)=C(O)C2(O)C(=O)C3=C(O)c4c(O)cccc4C(C)(O)C3CC12 (stereo not drawn) [Tetracycline]
Antibiotic Sensitivity of Culture A54556 (Culture A54556): +

CC1CC2C(=O)N(C)C(C)C(=O)NC(C)C(=O)N3CCCC3C(=O)OCC(NC(=O)C(Cc3ccccc3)NC(=O)/C=C/C=C/CO)C(=O)N2C1 (stereo not drawn) [Factor H] (X1-FS[ξPro(4ξ-Me)][NMeA]AP; ester 2-C; configuration not given here)
activity against a number of anaerobic bacteria (anaerobic bacteria): active | titratable groups (Electrometric titration): no titratable groups | ED50 (S. pyogenes): 9.9 mg/kg | zone of inhibition at 30 µg/disc ([1]; read-out: Zone diameter, 30 mcg./disc): 21 mm | zone of inhibition at 300 µg/disc ([1]; read-out: Zone diameter, 300 mcg./disc): 27 mm | MIC [2]: > 128 µg/mL | MIC [3]: > 128 µg/mL | Zone diameter ([4]; 30 mcg./disc): 12 mm. | Zone diameter ([4]; 300 mcg./disc): 24 mm. | in vivo antimicrobial activity against experimental bacterial infections [5]: have shown in vivo antimicrobial activity | Zone diameter ([6]; 30 mcg./disc): 8 mm. | Zone diameter ([6]; 300 mcg./disc): 11 mm. | Zone diameter ([7]; 30 mcg./disc): 30 mm. | Zone diameter ([7]; 300 mcg./disc): 32 mm. | Zone diameter ([8]; 30 mcg./disc): 10 mm. | Zone diameter ([8]; 300 mcg./disc): 14 mm. | MIC [9]: > 128 µg/mL | MIC (Peptococcus prevoti 1281): > 128 µg/mL | Zone diameter ([10]; 30 mcg./disc): 25 mm. | Zone diameter ([10]; 300 mcg./disc): 36 mm. | MIC (Bacteroides fragilis 111): > 128 µg/mL | MIC [11]: > 128 µg/mL | MIC [12]: > 128 µg/mL | MIC [13]: > 128 µg/mL | MIC [14]: > 128 µg/mL | MIC [15]: > 128 µg/mL | MIC [16]: > 128 µg/mL | MIC [17]: > 128 µg/mL | MIC [18]: > 128 µg/mL | MIC [19]: > 128 µg/mL | MIC [20]: > 128 µg/mL | MIC [21]: > 128 µg/mL | MIC [22]: 128 µg/mL (≈ 181 µM) | MIC [23]: > 128 µg/mL | MIC [24]: > 128 µg/mL
